Data from the supplement of paper PMC10307832.

How the values were obtained:
Assay in all cases: relative viability (nuclei count vs DMSO), 5 days (fraction); higher = more cells survive
AT9283 + Lapatinib = compound: O=C(Nc1c[nH]nc1-c1nc2ccc(CN3CCOCC3)cc2[nH]1)NC1CC1 [AT9283] + CS(=O)(=O)CCNCc1ccc(-c2ccc3ncnc(Nc4ccc(OCc5cccc(F)c5)c(Cl)c4)c3c2)o1 [Lapatinib] (partner 2 µM)
Summary of the method: (§1)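 Lung cancer cell lines, seeded in 1536-well plates, were treated the following day by pin tool with a single drug or with five library-drug doses (not always all listed) in √10 steps on top of a fixed anchor-drug dose. Cells were fixed and nuclei stained in one step after 5 days, and nuclei were counted. Relative viability is the nuclei count for treated wells divided by that for vehicle wells, reported as medians of duplicate plates.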

Erlotinib + Tozasertib = compound: C#Cc1cccc(Nc2ncnc3cc(OCCOC)c(OCCOC)cc23)c1 [Erlotinib] + Cc1cc(Nc2cc(N3CCN(C)CC3)nc(Sc3ccc(NC(=O)C4CC4)cc3)n2)n[nH]1 [Tozasertib] (partner 0.1 µM)
Summary of the method: as §1

Erlotinib + Phenformin = compound: C#Cc1cccc(Nc2ncnc3cc(OCCOC)c(OCCOC)cc23)c1 [Erlotinib] + N=C(N)NC(=N)NCCc1ccccc1 [Phenformin] (partner 250 µM)
Summary of the method: as §1

Erlotinib + Decitabine = compound: C#Cc1cccc(Nc2ncnc3cc(OCCOC)c(OCCOC)cc23)c1 [Erlotinib] + Nc1ncn([C@H]2C[C@H](O)[C@@H](CO)O2)c(=O)n1 [Decitabine] (partner 2 µM)
Summary of the method: as §1

Erlotinib + Vorinostat = compound: C#Cc1cccc(Nc2ncnc3cc(OCCOC)c(OCCOC)cc23)c1 [Erlotinib] + O=C(CCCCCCC(=O)Nc1ccccc1)NO [Vorinostat] (partner 1 µM)
Summary of the method: as §1

Row | Cell Line | relative viability (AT9283 + Lapatinib; first compound 0.003 µM) | relative viability (AT9283 + Lapatinib; first compound 0.03 µM) | relative viability (AT9283 + Lapatinib; first compound 0.09487 µM) | relative viability (AT9283 + Lapatinib; first compound 0.3 µM) | relative viability (Erlotinib + Tozasertib; first compound 0.02 µM) | relative viability (Erlotinib + Tozasertib; first compound 0.2 µM) | relative viability (Erlotinib + Tozasertib; first compound 0.6325 µM) | relative viability (Erlotinib + Tozasertib; first compound 2 µM) | relative viability (Erlotinib + Phenformin; first compound 0.02 µM) | relative viability (Erlotinib + Phenformin; first compound 0.2 µM) | relative viability (Erlotinib + Phenformin; first compound 0.6325 µM) | relative viability (Erlotinib + Phenformin; first compound 2 µM) | relative viability (Erlotinib + Decitabine; first compound 0.02 µM) | relative viability (Erlotinib + Decitabine; first compound 0.2 µM) | relative viability (Erlotinib + Decitabine; first compound 0.6325 µM) | relative viability (Erlotinib + Decitabine; first compound 2 µM) | relative viability (Erlotinib + Vorinostat; first compound 0.02 µM) | relative viability (Erlotinib + Vorinostat; first compound 0.2 µM) | relative viability (Erlotinib + Vorinostat; first compound 0.6325 µM) | relative viability (Erlotinib + Vorinostat; first compound 2 µM)
1 | HCC-366 | 1.01 | 0.0702 | 0.0449 | 0.0374 | 0.0918 | 0.0854 | 0.0664 | 0.039 | 0.599 | 0.661 | 0.601 | 0.567 | 0.353 | 0.324 | 0.335 | 0.264 | 0.41 | 0.363 | 0.369 | 0.222
2 | NCI-H2085 | 0.798 | 0.36 | 0.297 | 0.382 | 0.808 | 0.637 | 0.598 | 0.404 | 0.762 | 0.493 | 0.528 | 0.472 | 0.573 | 0.585 | 0.531 | 0.496 | 0.78 | 0.649 | 0.724 | 0.535
3 | NCI-H1915 | 0.885 | 0.931 | 0.477 | 0.217 | 0.45 | 0.405 | 0.408 | 0.262 | 0.398 | 0.378 | 0.383 | 0.35 | 0.288 | 0.266 | 0.272 | 0.269 | 0.536 | 0.529 | 0.508 | 0.485
4 | NCI-H1944 | 0.731 | 0.598 | 0.271 | 0.204 | 0.249 | 0.21 | 0.227 | 0.174 | 0.199 | 0.194 | 0.198 | 0.172 | 0.43 | 0.382 | 0.37 | 0.372 | 0.497 | 0.388 | 0.48 | 0.35
5 | NCI-H1355 | 1.01 | 0.911 | 0.845 | 0.168 | 0.567 | 0.538 | 0.4 | 0.266 | 0.474 | 0.493 | 0.458 | 0.414 | 0.394 | 0.315 | 0.322 | 0.341 | 0.668 | 0.633 | 0.602 | 0.521
6 | HCC-827 | 0.195 | 0.216 | 0.191 | 0.164 | 0.223 | 0.114 | 0.101 | 0.126 | 0.232 | 0.144 | 0.139 | 0.133 | 0.21 | 0.215 | 0.111 | 0.169 | 0.228 | 0.186 | 0.121 | 0.132
7 | RERF-LC-KJ | 0.809 | 0.516 | 0.256 | 0.191 | 0.55 | 0.53 | 0.44 | 0.381 | 0.393 | 0.372 | 0.311 | 0.337 | 0.638 | 0.62 | 0.649 | 0.582 | 0.716 | 0.605 | 0.624 | 0.453
8 | LK-2 | 0.788 | 0.26 | 0.198 | 0.181 | 0.196 | 0.17 | 0.157 | 0.158 | 0.623 | 0.275 | 0.513 | 0.39 | 0.294 | 0.291 | 0.346 | 0.262 | 0.264 | 0.454 | 0.419 | 0.304
